The values below come from ChEMBL document CHEMBL1157489, “Identification of novel non-peptide CXCR4 antagonists by ligand-based design approach” (Bioorg Med Chem Lett, 2008).

One assay deals with T1, C-X-C chemokine receptor type 4 (Homo sapiens, UniProt P61073). Description: Displacement of [125I]SDF1 from human CXCR4 expressed in CHO cells at 10 uM. Type of assay: cell-based.
T1 sequence (P61073 whole entry): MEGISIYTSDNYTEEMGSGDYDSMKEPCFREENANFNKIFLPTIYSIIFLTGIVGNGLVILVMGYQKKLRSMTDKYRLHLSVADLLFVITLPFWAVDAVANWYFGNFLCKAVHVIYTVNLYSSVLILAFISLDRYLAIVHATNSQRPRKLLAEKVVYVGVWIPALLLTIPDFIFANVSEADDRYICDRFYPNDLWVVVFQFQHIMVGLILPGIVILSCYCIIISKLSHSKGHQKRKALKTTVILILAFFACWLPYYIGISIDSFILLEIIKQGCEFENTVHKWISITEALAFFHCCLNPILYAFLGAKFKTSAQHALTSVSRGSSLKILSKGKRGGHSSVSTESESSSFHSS
Conditions: not given
`N=C(N)NCCCn1c(C(=O)Nc2cccc3ccccc23)cc2cc(NC(=O)Cc3ccc(O)cc3)ccc21`: the Activity stood at 62%.
In the case of `N=C(N)NCCCn1c(C(=O)NCCc2c[nH]c3ccccc23)cc2cc(NC(=O)CCNC(=N)N)ccc21`, the Activity is 70%.
Still for that read-out and setting: as for `N=C(N)NCCCn1c(C(=O)NCCc2ccc(O)cc2)cc2cc(NC(=O)CNC(=N)N)ccc21`, the figure is 23%.
`N=C(N)NCCc1cc2cc(NC(=O)CCc3ccc(O)cc3)ccc2n1CCc1ccc2ccccc2c1` returned an Activity of 53%.
Same read-out and setting: as for `CC(C)CC(NC(=N)N)C(=O)Nc1ccc2c(c1)cc(C(=O)NCCc1c[nH]c3ccccc13)n2CCCNC(=N)N` (racemic), the figure is 77%; as for `N=C(N)NCCCn1c(C(=O)NCCc2c[nH]c3ccccc23)cc2cc(NC(=O)CNC(=N)N)ccc21`, 88%.
Still for that read-out and setting: as for `N=C(N)NCCCn1c(C(=O)NCCc2c[nH]c3ccccc23)cc2cc(NC(=O)C(Cc3ccccc3)NC(=N)N)ccc21` (racemic), the figure is 72%; as for `N=C(N)NCCCn1c(C(=O)NCCc2ccc3ccccc3c2)cc2cc(NC(=O)CNC(=N)N)ccc21`, 63%; as for `N=C(N)NCCCn1c(C(=O)NCCc2c[nH]c3ccccc23)cc2cc(NC(=O)C3CCN(C(=N)N)CC3)ccc21`, 86%.
In turn, `N=C(N)NCCCn1c(C(=O)NCCc2cccc3ccccc23)cc2cc(NC(=O)CNC(=N)N)ccc21` displayed an Activity of 61%.
`N=C(N)NCCCn1c(C(=O)Nc2cccc3ccccc23)cc2cc(NC(=O)CCc3ccc(O)cc3)ccc21` returned an Activity of 55%.

Another assay addresses T1, C-X-C chemokine receptor type 4. Description: Displacement of [125I]SDF1 from human CXCR4 expressed in CHO cells. In kind it is cell-based.
Conditions: not given
A general note: Displacement assays read how much labelled ligand stays bound in the presence of the test substance.
Usually IC50 stands for the concentration needed to halve the response being measured. Low readings indicate higher potency, high ones lower potency. `CC(C)C[C@H](NC(=N)N)C(=O)Nc1ccc2c(c1)cc(C(=O)NCCc1c[nH]c3ccccc13)n2CCCNC(=N)N` had an IC50 of 1.2 µM.
Consider `NC(N)=NCCCn1c(C(=O)NCCc2c[nH]c3ccccc23)cc2cc(NC(=O)CN=C(N)N)ccc21`, for which the IC50 amounted to 3 µM.
In the case of `N=C(N)NCCCn1c(C(=O)NCCc2c[nH]c3ccccc23)cc2cc(NC(=O)[C@@H](Cc3ccccc3)NC(=N)N)ccc21`, the IC50 stood at 3.7 µM.
The same measure, in the same setting: as for `CC(C)C[C@@H](NC(=N)N)C(=O)Nc1ccc2c(c1)cc(C(=O)NCCc1c[nH]c3ccccc13)n2CCCNC(=N)N`, the figure is 2.2 µM.
With `NC(N)=NCCc1cc2cc(NC(=O)CCc3ccc(O)cc3)ccc2n1CCc1ccc2ccccc2c1`, the IC50 is 2.7 µM.
Same read-out and setting: with `N=C(N)NCCCn1c(C(=O)NCCc2c[nH]c3ccccc23)cc2cc(NC(=O)C3CCN(C(=N)N)CC3)ccc21` the figure was 3 µM; with `N=C(N)NCCCn1c(C(=O)NCCc2c[nH]c3ccccc23)cc2cc(NC(=O)[C@H](Cc3ccccc3)NC(=N)N)ccc21`, 1.7 µM.
`NC(N)=NCCCn1c(C(=O)Nc2cccc3ccccc23)cc2cc(NC(=O)Cc3ccc(O)cc3)ccc21` displayed an IC50 of 4.8 µM.

The test system of another assay is Human immunodeficiency virus 1. Description: Antiviral activity against HIV1 3B assessed as inhibition of virus-induced cytopathogenicity. The settings on record: Human immunodeficiency virus 1, 3B. In kind it is functional, organism-based.
Broadly, the EC50 is the concentration needed to bring the measured effect to its halfway point. Take `CC(C)C[C@H](NC(=N)N)C(=O)Nc1ccc2c(c1)cc(C(=O)NCCc1c[nH]c3ccccc13)n2CCCNC(=N)N`: the EC50 came to 5.4 µM.
